Measured values taken from patent US10054581B1, “Inhibitors of notch signaling pathway and use thereof in treatment of cancers” (Ecole Polytechnique Federale de Lausanne (EPFL), priority 2011, dated 2018).
Entries after “also recorded” stand apart in the source; their conditions may differ.

Tests used:
HPB ALL leukemic cells = assay: HPB ALL xenotransplantation in NOD/SCID γc−/− mice; type: in vivo, human; details: 25 mg/kg daily from around day 15, imaged day 27
Experimental: FIGS. 8A-8B show 6-(4-Tert-Butylphenoxy)Pyridin-3-Amine (I3) treatment increases latency of leukemia development in mice. […] On day 15, leukemic cells were established in the bone marrow. Mice were treated with oil or 6-(4-Tert-Butylphenoxy)Pyridin-3-Amine (I3) for every day. Mice were imaged on day 27 using Caliper IVIS (Xenogen) live imaging system. Red and blue colour indicates the intensity of luciferase signal and correlates with the number of leukemic cells. […] NOD/SCID γc^−/− mice were transplanted with 5×10^5 RPMI 8402 (luciferase expressing) cells. Leukemia development was followed using Caliper IVIS (Xenogen) live imaging system. On day […], a daily treatment was started using oil (n=3) or 6-(4-Tert-Butylphenoxy)Pyridin-3-Amine (I3) (n=4). Animals were treated for 27 days (end point of the experiment).
The human leukemic cell lines RPMI 8402 and HPB ALL were transduced with a lentivirus containing luciferase gene constitutively expressed downstream of a CMV promoter. […] Mice were monitored for tumor development using Caliper IVIS (Xenogen) live imaging system. […]
This allowed Applicants to visualize and monitor the leukemia progression in the mice using the Caliper IVIS (Xenogen) live imaging detection system. […] Mice were monitored for leukemia development by detecting luciferase expressing leukemic cells. […]

[1] = target: T1, NICD, MAML1 and CSL/RBP-jk (Homo sapiens, UniProt P46531+Q06330+Q92585); assay: Microscopy of NICD-GFP, MAML1-FLAG and CSL/RBP-jk localization in HeLa cells; type: cell-based
T1 construct: expressed in transfected cells; host or cells: HeLa cells (NICD-GFP and MAML1-FLAG transfected; CSL/RBP-jk endogenous)
T1 sequence (P46531 1754-2555 limits assumed): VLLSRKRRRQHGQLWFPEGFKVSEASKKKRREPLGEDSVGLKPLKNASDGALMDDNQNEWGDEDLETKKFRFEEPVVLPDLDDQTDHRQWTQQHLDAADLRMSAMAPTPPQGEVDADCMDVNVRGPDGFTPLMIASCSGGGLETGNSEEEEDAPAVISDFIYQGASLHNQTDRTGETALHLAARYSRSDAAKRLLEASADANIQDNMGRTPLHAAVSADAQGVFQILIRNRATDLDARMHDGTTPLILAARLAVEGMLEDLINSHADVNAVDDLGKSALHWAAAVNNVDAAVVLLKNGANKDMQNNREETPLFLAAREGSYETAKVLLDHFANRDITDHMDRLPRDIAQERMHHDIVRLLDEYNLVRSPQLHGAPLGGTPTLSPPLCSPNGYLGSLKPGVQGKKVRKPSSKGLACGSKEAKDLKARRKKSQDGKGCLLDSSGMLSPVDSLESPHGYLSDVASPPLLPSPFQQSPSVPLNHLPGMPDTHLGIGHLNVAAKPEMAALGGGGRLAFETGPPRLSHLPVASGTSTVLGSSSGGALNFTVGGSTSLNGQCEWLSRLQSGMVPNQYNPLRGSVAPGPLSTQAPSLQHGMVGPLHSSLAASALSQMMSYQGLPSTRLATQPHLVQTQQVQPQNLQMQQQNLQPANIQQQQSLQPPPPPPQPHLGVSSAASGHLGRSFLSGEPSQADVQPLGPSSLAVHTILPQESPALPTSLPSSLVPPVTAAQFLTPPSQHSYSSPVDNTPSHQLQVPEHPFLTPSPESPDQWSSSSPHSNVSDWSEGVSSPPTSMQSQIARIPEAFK
T1 sequence (Q92585 whole entry): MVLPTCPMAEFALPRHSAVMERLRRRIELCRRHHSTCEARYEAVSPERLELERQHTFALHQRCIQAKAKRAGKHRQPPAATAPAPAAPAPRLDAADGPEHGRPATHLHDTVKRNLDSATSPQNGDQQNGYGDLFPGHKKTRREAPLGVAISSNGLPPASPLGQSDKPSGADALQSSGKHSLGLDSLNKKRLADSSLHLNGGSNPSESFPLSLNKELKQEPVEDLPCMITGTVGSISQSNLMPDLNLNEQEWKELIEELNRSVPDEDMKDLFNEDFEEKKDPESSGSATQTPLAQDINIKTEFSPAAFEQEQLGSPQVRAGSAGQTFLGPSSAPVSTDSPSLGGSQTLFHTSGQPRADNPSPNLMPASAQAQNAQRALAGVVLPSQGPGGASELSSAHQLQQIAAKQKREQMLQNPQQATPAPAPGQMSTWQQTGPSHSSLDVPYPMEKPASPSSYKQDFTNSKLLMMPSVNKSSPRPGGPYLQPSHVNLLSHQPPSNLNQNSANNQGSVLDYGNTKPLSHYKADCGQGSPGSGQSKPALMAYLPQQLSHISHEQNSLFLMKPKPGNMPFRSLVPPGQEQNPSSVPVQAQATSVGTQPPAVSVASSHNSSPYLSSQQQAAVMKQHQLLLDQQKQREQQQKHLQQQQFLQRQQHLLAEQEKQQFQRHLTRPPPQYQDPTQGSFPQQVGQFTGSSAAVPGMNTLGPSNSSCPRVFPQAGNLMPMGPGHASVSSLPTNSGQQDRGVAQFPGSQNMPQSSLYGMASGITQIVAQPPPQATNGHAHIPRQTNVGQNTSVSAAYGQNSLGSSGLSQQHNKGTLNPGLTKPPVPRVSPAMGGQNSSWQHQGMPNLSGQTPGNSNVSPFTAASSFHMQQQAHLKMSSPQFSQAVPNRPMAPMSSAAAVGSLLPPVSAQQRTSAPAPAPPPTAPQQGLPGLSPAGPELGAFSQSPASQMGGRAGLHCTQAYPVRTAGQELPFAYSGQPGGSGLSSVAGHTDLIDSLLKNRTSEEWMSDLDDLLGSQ
T1 sequence (Q06330 whole entry): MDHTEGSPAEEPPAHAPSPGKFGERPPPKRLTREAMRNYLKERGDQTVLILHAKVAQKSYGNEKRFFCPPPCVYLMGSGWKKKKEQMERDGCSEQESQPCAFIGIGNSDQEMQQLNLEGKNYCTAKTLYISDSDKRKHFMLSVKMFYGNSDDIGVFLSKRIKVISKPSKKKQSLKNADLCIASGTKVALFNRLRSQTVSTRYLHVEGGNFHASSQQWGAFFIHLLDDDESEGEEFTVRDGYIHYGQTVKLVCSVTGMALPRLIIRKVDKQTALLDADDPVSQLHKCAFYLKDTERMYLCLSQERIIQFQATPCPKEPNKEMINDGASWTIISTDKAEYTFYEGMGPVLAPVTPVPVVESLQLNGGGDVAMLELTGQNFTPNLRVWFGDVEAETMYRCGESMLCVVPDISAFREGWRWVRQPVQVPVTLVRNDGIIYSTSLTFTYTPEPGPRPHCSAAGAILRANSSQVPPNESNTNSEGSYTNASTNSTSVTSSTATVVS
Experimental: To perform immunofluorescence staining, HeLa cells or C2C12 cells were grown on cover slips. Cells were washed with 1× ice-cold PBS, fixed with 4% PFA for 5 minutes at room temperature and permeabilized using 0.3% Triton X-100. Subsequently permeabilized cells were blocked for 20 minutes with 1% BSA for 20 minutes at room temperature. Cells were incubated with appropriate primary antibodies for […] at room temperature. Alexa Fluor-488 conjugated secondary antibodies were used to detect primary antibodies. Cells were counterstained with DAPI and mounted in fluorescent mounting media. Fluorescent images were viewed and captured using Zeiss Axioplan microscope at Bioimaging and optics core facility at EPFL.
This raises several possibilities about the mechanism of action of 6-(4-Tert-Butylphenoxy)Pyridin-3-Amine (I3). For example, 6-(4-Tert-Butylphenoxy)Pyridin-3-Amine (I3) treatment could impair nuclear localization of the NICD. A second possible mechanism of inhibition could be targeting of one or more individual components of the transcriptional activation complex in the nucleus. […] In parallel, the 6-(4-Tert-Butylphenoxy)Pyridin-3-Amine (I3) mediated pathway inhibition was determined by Notch driven luciferase measurement (data not shown). […]

[2] = system: Wnt signalling (β-catenin-TCF/LEF driven luciferase); assay: Wnt signalling TOP-luciferase assay in HeLa cells; type: cell-based; details: HeLa cells co-transfected with β-catenin and TOP-luciferase
Source text: One of the concerns about the activity of the chemical compound 6-(4-Tert-Butylphenoxy)Pyridin-3-Amine (I3) is its specificity towards the Notch signalling pathway. In order to test whether 6-(4-Tert-Butylphenoxy)Pyridin-3-Amine (I3) could also block other developmental pathways, Applicants have tested its ability to block the Wnt and Hedgehog signalling pathways. In summary, to measure Wnt signalling, HeLa cells were transfected with a plasmid containing a promoter consisting of TCF/LEF binding sites and thereby driving the expression of a luciferase gene (TOP-luciferase). To activate the Wnt pathway, a plasmid encoding for β-catenin was co-transfected into HeLa cells. The co-transfected cells were incubated in the presence or absence of the 6-(4-Tert-Butylphenoxy)Pyridin-3-Amine (I3) chemical compound. Transient introduction of β-catenin leads to an upregulation of Wnt signalling as measured by β-catenin-TCF/LEF driven luciferase activity.

CC(C)(C)c1ccc(Oc2ccc(N)cn2)cc1 [I3, 6-(4-Tert-Butylphenoxy)Pyridin-3-Amine]
leukemia progression (luciferase live imaging) (HPB ALL leukemic cells): did not progress at the same rate as in the oil treated group
co-localization of NICD, MAML1 and CSL/RBP-jk in sub-nuclear compartments ([1]; 800 ng NICD-GFP + 1 μg MAML1-FLAG, I3 10 μM, 24 hours): did not perturb the translocation and co-localization of NICD-GFP and MAML1 into sub-nuclear compartment; also recorded: did not perturb their distribution in the nucleus; also recorded: does not impede co-localization of NICD, MAML1 and CSL/RBP-jk in the sub-nuclear compartments
nuclear localization of NICD-GFP ([1]; HeLa cells transfected with NICD-GFP): not perturbed; also recorded: did not alter its nuclear localization
Wnt pathway activation [2]: does not block the Wnt pathway activation
